# Laboratory results taken from ChEMBL document CHEMBL1759996, “Design and synthesis of pyridin-2-yloxymethylpiperidin-1-ylbutyl amide CCR5 antagonists that are potent inhibitors of M-tropic (R5) HIV-1 replication” (Bioorg Med Chem Lett, 2011).
# Assays:
# [1] = molecular target: C-C chemokine receptor type 5 (Homo sapiens, UniProt P51681); assay: Displacement of […] from CCR5 expressed in HEK293F cells; format: cell-based
# [2] = system: Human immunodeficiency virus 1; assay: Antiviral activity against Human immunodeficiency virus 1 BAL infected in human PBMC assessed as inhibition of viral replication by p24 antigen specific ELISA; format: functional, organism-based
# [3] = Cytotoxicity against human PBMC; format: cell-based
# [4] = Cmax in rat; format: ADME, organism-based; conditions: in vivo
# [5] = AUC (0 to infinity) in rat; format: ADME, organism-based; parameters: time infinity; conditions: plasma
# [6] = Clearance in rat at 10 umol/kg, iv; format: ADME, organism-based; conditions: in vivo
# [7] = Volume of distribution at steady state in rat at 10 umol/kg, iv; format: ADME, organism-based; conditions: in vivo, read-out: Vdss
# [8] = Half life in rat at 10 umol/kg, iv; format: ADME, organism-based; conditions: in vivo
# [9] = Oral bioavailability in rat at 100 umol/kg; format: ADME, organism-based; conditions: in vivo
# [10] = Cmax in dog; format: ADME, organism-based, Canis lupus familiaris; conditions: in vivo
# [11] = AUC (0 to infinity) in dog; format: ADME, organism-based, Canis lupus familiaris; parameters: time infinity; conditions: plasma
# [12] = Clearance in dog at 5 umol/kg, iv; format: ADME, organism-based, Canis lupus familiaris; conditions: in vivo
# [13] = Volume of distribution at steady state in dog at 5 umol/kg, iv; format: ADME, organism-based, Canis lupus familiaris; conditions: in vivo, read-out: Vdss
# [14] = Half life in dog at 5 umol/kg, iv; format: ADME, organism-based, Canis lupus familiaris; conditions: in vivo
# [15] = Oral bioavailability in dog at 12.5 umol/kg; format: ADME, organism-based, Canis lupus familiaris; conditions: in vivo
# Chain of C-C chemokine receptor type 5 (P51681 whole entry): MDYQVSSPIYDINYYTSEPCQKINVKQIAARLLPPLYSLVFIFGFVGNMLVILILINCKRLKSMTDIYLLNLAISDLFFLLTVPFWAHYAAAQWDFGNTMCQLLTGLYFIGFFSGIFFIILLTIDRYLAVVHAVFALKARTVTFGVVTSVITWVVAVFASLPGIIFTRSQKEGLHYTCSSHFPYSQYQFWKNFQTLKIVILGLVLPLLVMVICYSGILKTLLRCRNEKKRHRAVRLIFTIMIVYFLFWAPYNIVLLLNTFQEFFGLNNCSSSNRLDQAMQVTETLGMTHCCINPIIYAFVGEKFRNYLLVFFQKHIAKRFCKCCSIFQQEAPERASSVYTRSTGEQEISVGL
Structure (SMILES),IC50 [1],IC50 [2],CC50 [3],further results
Cc1cccc(OC(c2ccc(Br)cc2)C2CCN(C(C)CCNC(=O)c3c(Cl)cncc3Cl)CC2)n1 (mixture of isomers),220 nM,1550 nM,6.5 µM,
CCO/N=C(/c1ccc(Br)cc1)C1CCN(C2(CCNC(=O)c3c(Cl)cncc3Cl)CC2)CC1,21400 nM,> 6600 nM,33 µM,
CCO/N=C(/c1ccc(Br)cc1)C1CCN(C2(C)CCN(C(=O)c3c(C)cc[n+]([O-])c3C)CC2)CC1 [SCHERING C],40 nM,160 nM,> 1.6 µM,Cmax [4]: 1600 nM; AUC(0-inf) [5]: 4.3 µM·h; clearance [6]: 31.7 mL/min/kg; Vd [7]: 7.2 L/kg; half-life [8]: 162 min; bioavailability [9]: 48%
CCO/N=C(/c1ccc(Br)cc1)C1CCN(C(C)(C)CCNC(=O)c2c(Cl)cncc2Cl)CC1,1760 nM,> 6810 nM,34 µM,
CC(CCNC(=O)c1c(Cl)cncc1Cl)N1CCC(C(Oc2cccc(F)c2)c2ccc(C(F)(F)F)cc2)CC1 (mixture of isomers),40 nM,230 nM,5.4 µM,
Cc1cccnc1OC(c1ccc(C(F)(F)F)cc1)C1CCN(C(C)CCNC(=O)c2c(Cl)cncc2Cl)CC1 (mixture of isomers),60 nM,2950 nM,33 µM,
CC(CCNC(=O)c1c(Cl)cncc1Cl)N1CCC(C(Oc2cccc(Cl)c2)c2ccc(C(F)(F)F)cc2)CC1 (mixture of isomers),60 nM,70 nM,8.1 µM,
CC(CCNC(=O)c1c(Cl)cncc1Cl)N1CCC(N(Cc2ccccc2)c2ccc(Br)cc2)CC1 (configuration not stated),30 nM,220 nM,4.28 µM,
CCO/N=C(/c1ccc(Br)cc1)C1CCN(C(CC)CCNC(=O)c2c(C)cc[n+]([O-])c2C)CC1 (configuration not stated),,> 32800 nM,> 178 µM,
CC(CCNC(=O)c1c(Cl)cncc1Cl)N1CCC(C(Oc2ccccc2Cl)c2ccc(C(F)(F)F)cc2)CC1 (mixture of isomers),120 nM,> 1270 nM,4.4 µM,
COC(=O)c1cccc(OC(c2ccc(C(F)(F)F)cc2)C2CCN(C(C)CCNC(=O)c3c(Cl)cncc3Cl)CC2)n1 (mixture of isomers),1050 nM,520 nM,14.6 µM,
CC(CCNC(=O)c1c(Cl)cncc1Cl)N1CCC(C(Oc2ccccc2)c2ccc(C(F)(F)F)cc2)CC1 (mixture of isomers),50 nM,1270 nM,6.8 µM,
CCO/N=C(/c1ccc(Br)cc1)C1CCN(CCNC(=O)c2c(C)cc[n+]([O-])c2C)CC1,,> 39200 nM,196 µM,
CC(CCNC(=O)c1c(Cl)cncc1Cl)N1CCC(C(Oc2cccc(Cl)n2)c2ccc(S(C)(=O)=O)cc2)CC1 (mixture of isomers),10 nM,4 nM,> 29.5 µM,
CC(CCNC(=O)c1c(Cl)cncc1Cl)N1CCC(C(Oc2cc(Cl)ccn2)c2ccc(C(F)(F)F)cc2)CC1 (mixture of isomers),70 nM,430 nM,4.26 µM,
COc1cccc(OC(c2ccc(C(F)(F)F)cc2)C2CCN(C(C)CCNC(=O)c3c(Cl)cncc3Cl)CC2)n1 (mixture of isomers),,> 1300 nM,32.7 µM,
Cc1cccc(OC(c2ccc(C(F)(F)F)cc2)C2CCN(C(C)CCNC(=O)c3c(Cl)cncc3Cl)CC2)n1 (mixture of isomers),40 nM,170 nM,6.7 µM,
COC(=O)c1cccc(OC(c2ccc(C(F)(F)F)cc2)C2CCN(C(C)CCNC(=O)c3c(Cl)cncc3Cl)CC2)c1 (mixture of isomers),,> 6260 nM,15.2 µM,
CC(CCNC(=O)c1c(Cl)cncc1Cl)N1CCC(C(Oc2ccc(C(F)(F)F)cc2)c2ccc(C(F)(F)F)cc2)CC1 (mixture of isomers),,> 1230 nM,3.1 µM,
CC(CCNC(=O)c1c(Cl)cncc1Cl)N1CCC(C(Oc2cccc(C(=O)O)n2)c2ccc(C(F)(F)F)cc2)CC1 (mixture of isomers),,> 28700 nM,28.7 µM,
CC(CCNC(=O)c1c(Cl)cncc1Cl)N1CCC(C(Oc2cccc(Cl)n2)c2ccc(OC(F)(F)F)cc2)CC1 (mixture of isomers),30 nM,2 nM,6 µM,
CC(CCNC(=O)c1c(Cl)cncc1Cl)N1CCC(C(Oc2cccnc2)c2ccc(Br)cc2)CC1 (mixture of isomers),970 nM,3300 nM,32.5 µM,
CCO/N=C(/c1ccc(Br)cc1)C1CCN(C(C)CCN(C)C(=O)c2c(C)cc[n+]([O-])c2C)CC1 (configuration not stated),5620 nM,> 36500 nM,> 183 µM,
CC(CCNC(=O)c1c(Cl)cncc1Cl)N1CCC(C(Oc2cccc(Cl)n2)c2ccc(C(F)(F)F)cc2)CC1 (mixture of isomers),20 nM,9 nM,> 32.5 µM,Cmax [4]: 200 nM; Cmax [10]: 100 nM; AUC(0-inf) [5]: 2.4 µM·h; AUC(0-inf) [11]: 0.5 µM·h; clearance [6]: 142 mL/min/kg; clearance [12]: 31.7 mL/min/kg; Vd [7]: 15.2 L/kg; Vd [13]: 20.8 L/kg; half-life [8]: 72 min; half-life [14]: 462 min; bioavailability [9]: 20%; bioavailability [15]: 6%

Structure (SMILES),IC50 [1],IC50 [2],CC50 [3],further results
Cc1ccc(OC(c2ccc(Br)cc2)C2CCN(C(C)CCNC(=O)c3c(Cl)cncc3Cl)CC2)nc1 (mixture of isomers),3800 nM,> 1290 nM,32.2 µM,
CC(CCNC(=O)c1c(Cl)cncc1Cl)N1CCC(C(Oc2cccc(C#N)n2)c2ccc(C(F)(F)F)cc2)CC1 (mixture of isomers),40 nM,9 nM,15.7 µM,
CC(CCNC(=O)c1c(Cl)cncc1Cl)N1CCC(C2(c3ccc(C(F)(F)F)cc3)Oc3ccccc3O2)CC1 (configuration not stated),30 nM,10 nM,7.8 µM,
CCO/N=C(/c1ccc(Br)cc1)C1CCN(CCCNC(=O)c2c(C)cc[n+]([O-])c2C)CC1,180 nM,> 1500 nM,7.5 µM,
Cc1cccnc1OC(c1ccc(Br)cc1)C1CCN(C(C)CCNC(=O)c2c(Cl)cncc2Cl)CC1 (mixture of isomers),190 nM,340 nM,32.1 µM,
CC(CCNC(=O)c1c(Cl)cncc1Cl)N1CCC(C(Oc2cccc(C(F)(F)F)n2)c2ccc(C(F)(F)F)cc2)CC1 (mixture of isomers),130 nM,60 nM,13.5 µM,
CC(CCNC(=O)c1c(Cl)cncc1Cl)N1CCC(C(Oc2ccccc2C(F)(F)F)c2ccc(C(F)(F)F)cc2)CC1 (mixture of isomers),,100 nM,12.5 µM,
CC(CCNC(=O)c1c(Cl)cncc1Cl)N1CCC(C(Oc2ccccn2)c2ccc(Br)cc2)CC1 (mixture of isomers),140 nM,3760 nM,33.7 µM,
CCO/N=C(/c1ccc(Br)cc1)C1CCN(C(C)CNC(=O)c2c(C)cc[n+]([O-])c2C)CC1 (configuration not stated),17000 nM,> 36400 nM,182 µM,
Cc1ccnc(OC(c2ccc(Br)cc2)C2CCN(C(C)CCNC(=O)c3c(Cl)cncc3Cl)CC2)c1 (mixture of isomers),140 nM,1960 nM,32.5 µM,
CC(CCNC(=O)c1c(Cl)cncc1Cl)N1CCC(C(Oc2ccncc2)c2ccc(Br)cc2)CC1 (mixture of isomers),,> 240 nM,31.2 µM,
CCO/N=C(/c1ccc(Br)cc1)C1CCN(C(C)CCNC(=O)c2c(Cl)cncc2Cl)CC1 (configuration not stated),130 nM,> 6700 nM,33.8 µM,
CC(CCNC(=O)c1c(Cl)cncc1Cl)N1CCC(C(Oc2ccccc2C#N)c2ccc(C(F)(F)F)cc2)CC1 (mixture of isomers),100 nM,2870 nM,17 µM,
CC(CCNC(=O)c1c(Cl)cncc1Cl)N1CCC(C2(c3ccc(C(F)(F)F)cc3)Cc3ccccc3O2)CC1 (configuration not stated),40 nM,220 nM,33.8 µM,
CC(CCNC(=O)c1c(Cl)cncc1Cl)N1CCC(C(Oc2ncccc2Cl)c2ccc(C(F)(F)F)cc2)CC1 (mixture of isomers),140 nM,80 nM,16.7 µM,
CC(CCNC(=O)c1c(Cl)cncc1Cl)N1CCC(C(Oc2ccccc2)c2ccc(Br)cc2)CC1 (configuration not stated),130 nM,> 1300 nM,31.7 µM,
CC(CCNC(=O)c1c(Cl)cncc1Cl)N1CCC(C(Oc2cccc(C(F)(F)F)c2)c2ccc(C(F)(F)F)cc2)CC1 (mixture of isomers),,30 nM,7 µM,
CC(CCNC(=O)c1c(Cl)cncc1Cl)N1CCC(C2=NOCc3cc(Br)ccc32)CC1 (configuration not stated),12300 nM,> 7400 nM,185 µM,
CC(CCNC(=O)c1c(Cl)cncc1Cl)N1CCC(C(Oc2cccc(C#N)c2)c2ccc(C(F)(F)F)cc2)CC1 (mixture of isomers),50 nM,480 nM,15.7 µM,
Cc1ccnc(OC(c2ccc(C(F)(F)F)cc2)C2CCN(C(C)CCNC(=O)c3c(Cl)cncc3Cl)CC2)c1 (mixture of isomers),50 nM,> 6720 nM,33.6 µM,
CC(CCNC(=O)c1c(Cl)cncc1Cl)N1CCC(C(O)c2ccc(Br)cc2)CC1 (configuration not stated),3390 nM,> 39600 nM,198 µM,
CCO/N=C(/c1ccc(Br)cc1)C1CCN(C(C)CCNC(=O)c2c(C)cc[n+]([O-])c2C)CC1 (configuration not stated),290 nM,2540 nM,> 178 µM,
CC(CCNC(=O)c1c(Cl)cncc1Cl)N1CCC(C(=O)c2ccc(Br)cc2)CC1 (configuration not stated),,32600 nM,189 µM,
CC(CCNC(=O)c1c(Cl)cncc1Cl)N1CCC(C(Oc2ccccn2)c2ccc(C(F)(F)F)cc2)CC1 (mixture of isomers),30 nM,130 nM,34.1 µM,
